Laboratory results from PubChem BioAssay AID256 (DTP/NCI, 2004).
Several values for one entry are separate records, joined by “and”; a condition that tells them apart may be missing. Equal values may be shown once. Toxic doses and inconclusive results are not listed. The calls were made as follows: active = survival T/C of 150% or more; inactive = T/C below 125% in these data.

System: CD2F1 mice, L1210 leukemia ip, survival T/C
Test: NCI In Vivo Anticancer Drug Screen. Data for tumor model L1210 Leukemia (intraperitoneal) in CD2F1 (CDF1) mice
Settings: higher = longer survival
Method in brief: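 Mice carrying a transplanted tumor received test compound or vehicle alone. The value is the measurement in the treated group divided by that in the vehicle-treated control group.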

[1] = endpoint: mean survival time, dose: 25.0 mg/kg/injection, schedule: Q01DX009 (ip), vehicle: other
[2] = endpoint: mean survival time, dose: 100.0 mg/kg/injection, schedule: Q01DX001 (ip), vehicle: saline with Tween-80
[3] = endpoint: mean survival time, dose: 200.0 mg/kg/injection, schedule: Q01DX001 (ip), vehicle: saline with Tween-80
[4] = endpoint: mean survival time, dose: 400.0 mg/kg/injection, schedule: Q01DX001 (ip), vehicle: saline with Tween-80
[5] = endpoint: mean survival time, dose: 100.0 mg/kg/injection, schedule: Q04DX003 (ip), vehicle: saline with Tween-80
[6] = endpoint: mean survival time, dose: 200.0 mg/kg/injection, schedule: Q04DX003 (ip), vehicle: saline with Tween-80
[7] = endpoint: mean survival time, dose: 100.0 mg/kg/injection, schedule: Q01DX009 (ip), vehicle: saline with Tween-80
[8] = endpoint: mean survival time, dose: 100.0 mg/kg/injection, schedule: Q04DX003 (ip), vehicle: saline
[9] = endpoint: mean survival time, dose: 200.0 mg/kg/injection, schedule: Q04DX003 (ip), vehicle: saline
[10] = endpoint: mean survival time, dose: 25.0 mg/kg/injection, schedule: Q01DX001 (ip), vehicle: saline with Tween-80
[11] = endpoint: mean survival time, dose: 50.0 mg/kg/injection, schedule: Q01DX001 (ip), vehicle: saline with Tween-80
[12] = endpoint: mean survival time, dose: 100.0 mg/kg/injection, schedule: Q04DX002 (ip), vehicle: saline with Tween-80
[13] = endpoint: mean survival time, dose: 200.0 mg/kg/injection, schedule: Q04DX002 (ip), vehicle: saline with Tween-80
[14] = endpoint: mean survival time, dose: 400.0 mg/kg/injection, schedule: Q04DX002 (ip), vehicle: saline with Tween-80
[15] = endpoint: mean survival time, dose: 400.0 mg/kg/injection, schedule: Q04DX003 (ip), vehicle: saline with Tween-80

Measured: T/C

CN(Cc1ccccc1)N=Nc1ccc(C(=O)O)cc1
inactive: [1] 105 % of control | endpoint: mean survival time, dose: 50.0 mg/kg/injection, schedule: Q01DX009 (ip), vehicle: other 108 % of control | endpoint: mean survival time, dose: 100.0 mg/kg/injection, schedule: Q01DX009 (ip), vehicle: other 101 % of control

C=CCN(C(C)=O)c1nnc(N(CC=C)C(C)=O)s1
inactive: [2] 100 % of control | [3] 100 % of control | [4] 100 % of control

NC1CCCCCCC1O (stereo unspecified)
inactive: endpoint: mean survival time, dose: 5.0 mg/kg/injection, schedule: Q01DX001 (ip), vehicle: saline sonified 114 % of control | endpoint: mean survival time, dose: 10.0 mg/kg/injection, schedule: Q01DX001 (ip), vehicle: saline sonified 92 % of control | endpoint: mean survival time, dose: 20.0 mg/kg/injection, schedule: Q01DX001 (ip), vehicle: saline sonified 100 % of control

CCCCCCCc1c(C)c2ccc(OC)cc2[nH]c1=O
inactive: [5] 95 % of control | [6] 90 % of control

CC(C)CC(NC(=O)C(N)Cc1ccc(N(CCCl)CCCl)cc1)C(=O)O (stereo unspecified)
inactive: endpoint: mean survival time, dose: 1.0 mg/kg/injection, schedule: Q04DX003 (ip), vehicle: saline with Tween-80 106 % of control | endpoint: mean survival time, dose: 2.0 mg/kg/injection, schedule: Q04DX003 (ip), vehicle: saline with Tween-80 111 % of control | endpoint: mean survival time, dose: 4.0 mg/kg/injection, schedule: Q04DX003 (ip), vehicle: saline with Tween-80 113 % of control | endpoint: mean survival time, dose: 8.0 mg/kg/injection, schedule: Q04DX003 (ip), vehicle: saline with Tween-80 118 % of control | endpoint: mean survival time, dose: 32.0 mg/kg/injection, schedule: Q04DX003 (ip), vehicle: saline with Tween-80 112 % of control | endpoint: mean survival time, dose: 64.0 mg/kg/injection, schedule: Q04DX003 (ip), vehicle: saline with Tween-80 121 % of control

CC1/C(=N/O)C(=O)c2ccccc21 (stereo unspecified)
inactive: endpoint: mean survival time, dose: 50.0 mg/kg/injection, schedule: Q01DX009 (ip), vehicle: saline with Tween-80 102 % of control | [2] 91 % of control | [7] 86 % of control | [3] 97 % of control

O=P(O)(c1ccccc1Br)c1ccccc1Br
inactive: endpoint: mean survival time, dose: 50.0 mg/kg/injection, schedule: Q04DX003 (ip), vehicle: saline 101 % of control | [8] 97 % of control | [9] 94 % of control

OC1(c2ccccc2)CCN(C/C=C/c2ccccc2)CC1
inactive: [10] 102 % of control | [11] 101 % of control | [2] 102 % of control and 103 % of control

NNc1c(F)c(F)c2c(F)c(F)c(F)c(F)c2c1F
inactive: [10] 97 % of control | [11] 96 % of control | [2] 88 % of control

c1ccc(CCc2ccccn2)nc1
inactive: endpoint: mean survival time, dose: 25.0 mg/kg/injection, schedule: Q04DX003 (ip), vehicle: saline with Tween-80 105 % of control | endpoint: mean survival time, dose: 50.0 mg/kg/injection, schedule: Q04DX003 (ip), vehicle: saline with Tween-80 100 % of control | [5] 91 % of control and 103 % of control

Cn1c(=O)[nH]c(=O)c2cc(Cl)ccc21
inactive: [12] 101 % of control | [13] 106 % of control | [14] 121 % of control

Cc1c(O)c2c(c(O)c1Cc1cccc(CN)c1)C(=O)c1ccccc1C2=O
inactive: endpoint: mean survival time, dose: 1.56 mg/kg/injection, schedule: Q01DX009 (ip), vehicle: other 101 % of control | endpoint: mean survival time, dose: 3.13 mg/kg/injection, schedule: Q01DX009 (ip), vehicle: other 93 % of control | endpoint: mean survival time, dose: 6.25 mg/kg/injection, schedule: Q01DX009 (ip), vehicle: other 87 % of control | endpoint: mean survival time, dose: 12.5 mg/kg/injection, schedule: Q01DX009 (ip), vehicle: other 90 % of control | [1] 94 % of control

COc1ccc(Cl)cc1NC(=O)N/N=C(\C)CC(C)C
inactive: [2] 105 % of control | [3] 95 % of control | [4] 101 % of control

CNC(=O)OCc1c(COC(=O)NC)c(-c2ccccc2)n(C)c1-c1ccccc1
inactive: endpoint: mean survival time, dose: 3.12 mg/kg/injection, schedule: Q01DX009 (ip), vehicle: distilled water + Tween-80 111 % of control | endpoint: mean survival time, dose: 6.25 mg/kg/injection, schedule: Q01DX009 (ip), vehicle: distilled water + Tween-80 111 % of control | endpoint: mean survival time, dose: 50.0 mg/kg/injection, schedule: Q01DX009 (ip), vehicle: distilled water + Tween-80 111 % of control

CCCCc1ccc(N=Cc2ccc(C=Nc3ccc(CCCC)cc3)cc2)cc1
inactive: [5] 94 % of control | [6] 89 % of control | [15] 89 % of control

O=C1/C(=C/c2ccccc2)CCS(=O)(=O)c2ccccc21
inactive: [2] 97 % of control | [3] 97 % of control | [4] 90 % of control

CCOC(=O)CC1CC(CN)(C(=O)OCC)CO1 (stereo unspecified)
inactive: [5] 95 % of control | [6] 95 % of control | [15] 100 % of control

COc1ccc(COC(=O)Oc2ccccc2)cc1OC
inactive: [12] 93 % of control | [13] 101 % of control | [14] 96 % of control

COc1cc2c(cc1OC)C1CC(=O)C(CC(C)C)CN1CC2 (stereo unspecified)
inactive: [5] 96 % of control | [6] 88 % of control | [15] 100 % of control

C=CCN(CC=C)Cc1cccc(N(CCCl)CCCl)c1 (tested in a mixture with another compound)
inactive: endpoint: mean survival time, dose: 50.0 mg/kg/injection, schedule: Q01DX009 (ip), vehicle: Klucel (hydroxypropylcellulose) (HPC) 109 % of control | endpoint: mean survival time, dose: 100.0 mg/kg/injection, schedule: Q01DX009 (ip), vehicle: Klucel (hydroxypropylcellulose) (HPC) 114 % of control

COc1ccc(NC(=S)/C(=C(\[O-])c2ccc([N+](=O)[O-])cc2)[n+]2ccc(C(C)C)cc2)cc1
inactive: [7] 91 % of control | endpoint: mean survival time, dose: 200.0 mg/kg/injection, schedule: Q01DX009 (ip), vehicle: saline with Tween-80 97 % of control

c1ccc(C2CC([P+](c3ccccc3)(c3ccccc3)c3ccccc3)=NN2CC[P+](c2ccccc2)(c2ccccc2)c2ccccc2)cc1 (stereo unspecified)
inactive: endpoint: mean survival time, dose: 1.56 mg/kg/injection, schedule: Q04DX003 (ip), vehicle: saline with Tween-80 101 % of control | endpoint: mean survival time, dose: 3.13 mg/kg/injection, schedule: Q04DX003 (ip), vehicle: saline with Tween-80 96 % of control | endpoint: mean survival time, dose: 6.25 mg/kg/injection, schedule: Q04DX003 (ip), vehicle: saline with Tween-80 93 % of control

CC(C)CCNc1ncnc2[nH]ncc12
inactive: endpoint: mean survival time, dose: 12.5 mg/kg/injection, schedule: Q04DX003 (ip), vehicle: Klucel (hydroxypropylcellulose) (HPC) 106 % of control | endpoint: mean survival time, dose: 25.0 mg/kg/injection, schedule: Q04DX003 (ip), vehicle: Klucel (hydroxypropylcellulose) (HPC) 106 % of control | endpoint: mean survival time, dose: 50.0 mg/kg/injection, schedule: Q04DX003 (ip), vehicle: Klucel (hydroxypropylcellulose) (HPC) 100 % of control

COc1cc2c(cc1OC)[C@@H]1C(=O)c3ccc4c(c3O[C@@H]1CO2)C[C@H](C(C)C)O4
inactive: endpoint: median survival time, dose: 6.25 mg/kg/injection, schedule: Q01DX005 (ip), vehicle: Klucel (hydroxypropylcellulose) (HPC) 107 % of control | endpoint: median survival time, dose: 12.5 mg/kg/injection, schedule: Q01DX005 (ip), vehicle: Klucel (hydroxypropylcellulose) (HPC) 115 % of control | endpoint: median survival time, dose: 18.0 mg/kg/injection, schedule: Q01DX005 (ip), vehicle: Klucel (hydroxypropylcellulose) (HPC) 113 % of control | endpoint: median survival time, dose: 25.0 mg/kg/injection, schedule: Q01DX005 (ip), vehicle: Klucel (hydroxypropylcellulose) (HPC) 115 % of control | endpoint: median survival time, dose: 30.0 mg/kg/injection, schedule: Q01DX005 (ip), vehicle: Klucel (hydroxypropylcellulose) (HPC) 118 % of control | endpoint: median survival time, dose: 100.0 mg/kg/injection, schedule: Q01DX005 (ip), vehicle: Klucel (hydroxypropylcellulose) (HPC) 100 % of control

Cc1cccc(CNc2ccc(S(=O)(=O)c3ccc(NCc4cccc(C)n4)cc3)cc2)n1
inactive: [8] 97 % of control | [9] 112 % of control | endpoint: mean survival time, dose: 400.0 mg/kg/injection, schedule: Q04DX003 (ip), vehicle: saline 93 % of control
